Measurements as given in article PMC12797170, “Potent Competitive Inhibitors of Ecto-5′-nucleotidase (CD73) based on 6‑(Het)aryl-7-deazapurine Ribonucleoside 5′‑O‑Bisphosphonates” (ACS Pharmacology & Translational Science, 2025).

System: CD8+ T cells
Assay: CD8+ T cell activation assay (CD25, IFN-γ, granzyme B)
Type: cell-based, human
Settings: granzyme B and IFN-γ, 60 h
Method: 6 CD73 inhibition partially reverses the immunosuppressive effect of adenosine generated from AMP in CD8 ^ + T cells. CD8^+ T cells were activated using CD3/CD28 activation beads in the presence of 2.5 μM EHNA, with or without 1 mM AMP and CD73 inhibitors (500 nM or 50 nM). A. CD25 expression. The percentage of CD8^+ T cells expressing the activation marker CD25 was measured by flow cytometry 60 h after activation. Data represent technical triplicates. B. Cytokine secretion. Granzyme B and IFN-γ levels in the culture supernatant were quantified by ELISA 60 h after activation. The data represent technical duplicates from two independently treated wells.
Peripheral blood was obtained from healthy donors at the Military University Hospital Prague, following informed consent. CD8+ T cells were enriched using the RosetteSep Human CD8+ T Cell Enrichment Cocktail ([…] Technologies) according to the manufacturer’s instructions and subsequently isolated by density gradient centrifugation using SepMate tubes ([…] Technologies). Residual red blood cells were lysed using a red blood cell lysis buffer (155 mM NH4Cl, 12 mM NaHCO3, 0.1 mM EDTA, pH = 7.1–7.4). The isolated CD8+ T cells were resuspended in complete RPMI and counted using an automated cell counter.
CD8+ T cells were seeded at 5 × 10^4 cells/well in 50 μL of complete RPMI in a flat-bottom 96-well plate. […] This was followed by the addition of 10 μL of a CD73 inhibitor at either 5 μM or 500 nM (experimental wells) or 10 μL of complete RPMI (control wells). Subsequently, 20 μL of 5 mM AMP was added to all wells except those serving as controls for maximal T cell activation. […]
Following incubation, supernatants were collected for quantification of IFN-γ and granzyme B using ELISA. […] Finally, stained cells were washed and analyzed using a BD LSRFortessa flow cytometer. Data were processed and analyzed using FlowJo software (version 10.8.1) and GraphPad Prism 10.
Secretion of IFN-γ and granzyme B was quantified using Human IFN-γ DuoSet ELISA and Human Granzyme B DuoSet ELISA (R&D Systems) according to the manufacturer’s instructions. […]

Row | Compound | cytokine rescue efficacy
1 | Cc1nc(-c2cccc3ccccc23)c2ccn([C@@H]3O[C@H](COP(=O)(O)CP(=O)(O)O)[C@@H](O)[C@H]3O)c2n1 [18E.6] | weakest effects
2 | Cc1nc(-c2ccc3ccccc3c2)c2ccn([C@@H]3O[C@H](COP(=O)(O)CP(=O)(O)O)[C@@H](O)[C@H]3O)c2n1 [18E.7] | weakest effects
